± gives the standard deviation of the averaged measurements.
Columns and labels:
[1] = system: UT-SCC-28; assay: relative IC50 (midpoint of the fitted curve; maximal inhibition may be below 50%); higher = less potent; conditions: culture condition: on top of Matrigel; treatment time: 3 days
Summary of the method: (§1)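 Viability of HPV-negative HNSCC cell lines was measured by CellTiter-Glo 2.0 luminescence. Cells were seeded at 500 cells/well in 384-well plates on plastic, on Matrigel- or Myogel-coated wells (500 µg/mL), or embedded in Matrigel or Myogel plus rat collagen I, then given compounds at five 10-fold concentrations for 3 days, with signals normalised to vehicle (0.1% DMSO) and cell-killing control wells. Fitting of percent-inhibition dose–response curves in the FIMM pipeline yielded IC50, maximal inhibition and drug sensitivity score.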

[2] = system: UT-SCC-24B; assay: as above; conditions: treatment time: 3 days
Summary of the method: as §1

[3] = system: UT-SCC-28; assay: maximal % inhibition of viability relative to DMSO; higher = stronger effect; conditions: treatment time: 3 days
Method: (§2)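 HNSCC cell lines (500 cells/well, 384-well) were cultured on plastic, on top of (2D) or embedded (3D) in Matrigel or human leiomyoma matrix Myogel (500 ug/mL; Myogel 3D mixed with rat collagen I). Cells were treated for 3 days with 5 ten-fold concentrations of each drug, and viability was read by CellTiter-Glo. Viability was normalised to DMSO and benzethonium chloride controls and fitted with the FIMM DSRT pipeline to give IC50 (nM), maximal % inhibition and DSS. Suffixes _1/_2/_3 are replicates. Only inhibition-mode (IC50) fits are kept.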

[4] = system: UT-SCC-81; assay: as above; conditions: treatment time: 3 days
Method: as §2

[5] = system: UT-SCC-44; assay: as above; conditions: treatment time: 3 days
Method: as §2

[6] = system: UT-SCC-42A; assay: as above; conditions: treatment time: 3 days
Method: as §2

[7] = system: UT-SCC-14; assay: as above; conditions: treatment time: 3 days
Method: as §2

[8] = system: UT-SCC-24B; assay: as above; conditions: treatment time: 3 days
Method: as §2

[9] = system: UT-SCC-42B; assay: as above; conditions: treatment time: 3 days
Method: as §2

[10] = system: UT-SCC-40; assay: as above; conditions: treatment time: 3 days
Method: as §2

[11] = system: UT-SCC-73; assay: as above; conditions: treatment time: 3 days
Method: as §2

[12] = system: UT-SCC-8; assay: as above; conditions: treatment time: 3 days
Method: as §2

[13] = system: UT-SCC-106A; assay: as above; conditions: treatment time: 3 days
Method: as §2

[14] = system: UT-SCC-24A; assay: drug sensitivity score (DSS); higher = more sensitive; conditions: treatment time: 3 days
Method: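 HNSCC cell lines (500 cells/well, 384-well) were cultured on plastic, on top of (2D) or embedded (3D) in Matrigel or human leiomyoma matrix Myogel (500 ug/mL; Myogel 3D mixed with rat collagen I). Cells were treated for 3 days with 5 ten-fold concentrations of each drug, and viability was read by CellTiter-Glo. Suffixes _1/_2/_3 on drug names are replicates.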

[15] = culture condition: embedded in Myogel + collagen I
[16] = culture condition: on top of Matrigel
[17] = culture condition: on top of Myogel
[18] = culture condition: plastic 2D (no matrix)
[19] = culture condition: embedded in Matrigel

For `COc1ccc(-c2cc3c(C)nc(N)nc3n([C@H]3CC[C@H](OCCO)CC3)c2=O)cn1`, which “relative IC50” value [1] is on record?
Its value is 0.118 µM.

What about the “relative IC50” value [2, 15] of the same molecule?
Its value is 0.163 µM.

And the “relative IC50” value [2, 16]?
Its value is 0.363 µM.

What about the “relative IC50” value [2, 17] of the same molecule?
The value was 0.562 µM.

What about the “relative IC50” value [2, 18] of the same molecule?
The value was 0.337 µM.

What about the “maximal % inhibition of viability” value [3, 19] of the same molecule?
The value was 63.3 ± 13%.

What about the “maximal % inhibition of viability” value [3, 15] of the same molecule?
Its value is 65.3 ± 16%.

What about the “maximal % inhibition of viability” value [3, 16] of the same molecule?
The value was 66 ± 3.7%.

What about the “maximal % inhibition of viability” value [3, 18] of the same molecule?
Its value is 56.8 ± 3.1%.

What about the “maximal % inhibition of viability” value [4, 19] of the same molecule?
Its value is 94 ± 4.5%.

And the “maximal % inhibition of viability” value [4, 15]?
The value was 77.7 ± 13%.

And the “maximal % inhibition of viability” value [4, 16]?
Its value is 89.7 ± 4.7%.

And the “maximal % inhibition of viability” value [4, 17]?
Its value is 79.7 ± 8.8%.

And the “maximal % inhibition of viability” value [4, 18]?
Its value is 81.7 ± 7.7%.

And the “maximal % inhibition of viability” value [5, 19]?
Its value is 45.9 ± 6.3%.

What about the “maximal % inhibition of viability” value [5, 15] of the same molecule?
The value was 40.2 ± 19%.

And the “maximal % inhibition of viability” value [5, 16]?
The value was 44.7 ± 10%.

What about the “maximal % inhibition of viability” value [5, 17] of the same molecule?
The value was 43 ± 11%.

And the “maximal % inhibition of viability” value [5, 18]?
Its value is 43.2 ± 15%.

What about the “maximal % inhibition of viability” value [6, 19] of the same molecule?
Its value is 71.4 ± 9.7%.

What about the “maximal % inhibition of viability” value [6, 15] of the same molecule?
Its value is 62.5 ± 12%.

What about the “maximal % inhibition of viability” value [6, 16] of the same molecule?
Its value is 72.1 ± 7.3%.

What about the “maximal % inhibition of viability” value [6, 17] of the same molecule?
Its value is 63.3 ± 12%.

And the “maximal % inhibition of viability” value [6, 18]?
The value was 72.5 ± 6.5%.

What about the “maximal % inhibition of viability” value [7, 19] of the same molecule?
Its value is 80.5 ± 3.8%.

And the “maximal % inhibition of viability” value [7, 15]?
Its value is 67.7 ± 5.3%.

What about the “maximal % inhibition of viability” value [7, 16] of the same molecule?
The value was 77.3 ± 1.4%.

What about the “maximal % inhibition of viability” value [7, 17] of the same molecule?
Its value is 67.5 ± 3.8%.

What about the “maximal % inhibition of viability” value [7, 18] of the same molecule?
Its value is 72.7 ± 3.6%.

What about the “maximal % inhibition of viability” value [8, 19] of the same molecule?
Its value is 99.6 ± 0.2%.

And the “maximal % inhibition of viability” value [8, 15]?
The value was 98.7 ± 0.36%.

What about the “maximal % inhibition of viability” value [8, 16] of the same molecule?
Its value is 99.57 ± 0.67%.

And the “maximal % inhibition of viability” value [8, 17]?
The value was 99 ± 1%.

What about the “maximal % inhibition of viability” value [8, 18] of the same molecule?
Its value is 99.73 ± 0.46%.

What about the “maximal % inhibition of viability” value [9, 19] of the same molecule?
The value was 63.8 ± 11%.

And the “maximal % inhibition of viability” value [9, 16]?
The value was 31.5 ± 7%.

What about the “maximal % inhibition of viability” value [9, 17] of the same molecule?
Its value is 18.5 ± 13%.

What about the “maximal % inhibition of viability” value [9, 18] of the same molecule?
The value was 21.6 ± 12%.

What about the “maximal % inhibition of viability” value [10, 19] of the same molecule?
The value was 88.6 ± 7.3%.

And the “maximal % inhibition of viability” value [10, 15]?
The value was 74 ± 12%.

What about the “maximal % inhibition of viability” value [10, 16] of the same molecule?
Its value is 85.1 ± 7.9%.

And the “maximal % inhibition of viability” value [10, 17]?
Its value is 64.1 ± 17%.

What about the “maximal % inhibition of viability” value [10, 18] of the same molecule?
The value was 68 ± 15%.

And the “maximal % inhibition of viability” value [11, 19]?
Its value is 87.9 ± 5%.

What about the “maximal % inhibition of viability” value [11, 15] of the same molecule?
The value was 79.9 ± 16%.

What about the “maximal % inhibition of viability” value [11, 16] of the same molecule?
The value was 82.7 ± 12%.

What about the “maximal % inhibition of viability” value [11, 17] of the same molecule?
The value was 80 ± 14%.

And the “maximal % inhibition of viability” value [11, 18]?
The value was 85.4 ± 6.6%.

And the “maximal % inhibition of viability” value [12, 19]?
Its value is 91.8 ± 9%.

And the “maximal % inhibition of viability” value [12, 15]?
The value was 71.3 ± 21%.

And the “maximal % inhibition of viability” value [12, 16]?
Its value is 82.1 ± 19%.

What about the “maximal % inhibition of viability” value [12, 17] of the same molecule?
The value was 78.7 ± 14%.

What about the “maximal % inhibition of viability” value [12, 18] of the same molecule?
Its value is 84 ± 14%.

And the “maximal % inhibition of viability” value [13, 19]?
The value was 72.2 ± 2.7%.

And the “maximal % inhibition of viability” value [13, 15]?
The value was 58.5 ± 8.7%.

And the “maximal % inhibition of viability” value [13, 16]?
Its value is 75.6 ± 2.8%.

And the “maximal % inhibition of viability” value [13, 17]?
The value was 61.7 ± 13%.

What about the “maximal % inhibition of viability” value [13, 18] of the same molecule?
Its value is 76.8 ± 4.8%.

What about the drug sensitivity score [14, 19] of the same molecule?
The drug sensitivity score was 17 ± 7.7 DSS.

What about the drug sensitivity score [14, 15] of the same molecule?
The drug sensitivity score was 9.63 ± 6.9 DSS.

What about the drug sensitivity score [14, 16] of the same molecule?
The drug sensitivity score was 11.9 ± 4.7 DSS.

And the drug sensitivity score [14, 17]?
Its drug sensitivity score is 5.83 ± 2.9 DSS.

What about the drug sensitivity score [14, 18] of the same molecule?
Its drug sensitivity score is 11.4 ± 7.7 DSS.
